Assays:
HCT116 tumors = test: In vivo drug delivery, tumor volume in HCT116 xenograft mice; parameters: species or system Balb/c female nude mice; conditions: 14 days, intratumoral single dose 10 mg/kg
Description: Six (6) to seven (7)-week-old Balb/c female nude mice (weight of 21 g to 25 g) were purchased from Orient Bio Inc., (Seoul, Korea), and were maintained in a 12-hour light/12-hour darkness cycle (12:12LD) at a temperature of 22° C. to 24° C., in humidity of 40% to 60%, and with food and water ad libitum. HCT116 was trypsinized, washed twice with serum-free DMEM, and dispersed at a density of 1×10^7 cells/mL PBS. […] of the dispersed cells was subcutaneously injected into the right back region of the mice. After the tumor size reached about 150 mm^3, the mice were randomly divided into six (6) groups depending on differences in the minimum weight and tumor size. The mice were intratumorally injected with physiological saline, DGO, GQD, Cur, DGO-Cur, and GQD-Cur dispersions at a total dose of 10 mg/kg. The tumor size of each of the groups was measured by a caliper, and the tumor volume was calculated by using the following equation: tumor volume=ab^2×0.5236, where ‘a’ is the maximum diameter of tumor, and ‘b’ is the minimum diameter of tumor. Relative tumor volumes were calculated as V/V0 (V0 was the tumor volume when the treatment was initiated).
Experimental female nude mice bearing subcutaneous xenografts were divided into groups and intratumorally injected with a single dose of each of physiological saline, pure DGO and GQDs, free Cur, or DGO-Cur and GQD-Cur composites. […]

HCT116 cells = test: In vitro cytotoxicity, MTT analysis; format: cell-based, Human; conditions: HCT116, 100 μg/mL, 24 hours
Description: Human colon cancer cells (HCT116) were maintained in a Dulbecco's modified Eagle medium (DMEM), and supplemented with 10% fetal bovine serum (FBS) and antibiotics (10,000 μg/mL streptomycin and 10,000 unit/mL penicillin) at 37° C. in a humidified atmosphere containing 5% CO2(v/v).
In vitro cytotoxicity was measured by using standard colorimetric 3-(4,5-dimethylthiazol-2-yl)-2,5-diphenyl tetrazolium bromide (MTT) analysis. For the MTT analysis, HCT116 cells were seeded in a 96-well cell-culture plate at 1×10^4/well, and cultured for 12 hours at 37° C. under 5% CO2. Thereafter, the HCT116 cells were cultured for 24 hours by using various concentrations ([…], 12.5, 25, 50, and 100 μg/mL) of GO, DGO, GQD, Cur, GO-Cur, DGO-Cur, and GQD-Cur. Next, 20 μl stock MTT (5 mg/mL) was added to each of the cells, and the cells were cultured under 5% CO2 at 37° C. for 4 hours. After the culture for additional 4 hours, the resulting formazan crystals were dissolved in dimethyl sulfoxide (DMED, 100 μl), and absorbance intensity was measured by a microplate reader at 570 nm. All the experiments were conducted in quadruplicate, and the relative cell viability (%) was expressed as a percentage relative to untreated control cells.

COc1cc(/C=C/C(=O)CC(=O)/C=C/c2ccc(O)c(OC)c2)ccc1O [Cur, Curcumin]
inhibition of tumor proliferation (HCT116 tumors): tumor proliferation was initially inhibited to some extent
cancer cells dead (HCT116 cells): about 70%
